Results as given in patent US20180086749A1, “INHIBITORS OF VIRUSES” (priority 2015, published 2018).
“And” between values parts separate entries of the source, which are not always exact repeats. Equal values may be shown once. Read-outs that look alike come from different tables or passages of the source.

Tests used:
ZIKV/MR766 = assay: Dose-response EC50, ZIKV/MR766; assay type: cell-based; conditions: Zika virus, Vero 76, Vero76, MOI 0.05
[1] = system: VEEV TrD (Trinidad donkey); assay type: cell-based, Venezuelan equine encephalitis virus
LCMV-ARM = assay type: cell-based, Lymphocytic Choriomeningitis Virus
JEV [2] = assay: Dose-response EC50, JEV; assay type: cell-based; conditions: Japanese encephalitis virus
alphaviruses = assay type: cell-based; conditions: 5 μM
HIV-1 = HIV-1 viral infectivity assay (TZM-bl); assay type: cell-based; design: reduction in viral infectivity: dose or concentration left out as unconfirmed
[3] = system: innate immune response genes in HEK 293T cells; assay type: cell-based, human
VEEV TrD = assay: microbe, parasite or virus in culture; assay type: cell-based; conditions: Venezuelan equine encephalitis virus
WNV/NY99 [4] = assay: Dose-response EC50, WNV; assay type: cell-based; conditions: West Nile virus
CHIKV (S27 strain) = CHIKV (S27 strain) CPE assay; assay type: cell-based, Chikungunya virus
HSV-2 = assay type: cell-based, Herpes simplex virus type-2
[5] = system: HEK-Blue IFN-α/β reporter cells; assay: HEK-Blue IFN-α/β cell reporter assay (SEAP); assay type: cell-based, human
[6] = system: IFN α/β in HEK 293T culture supernatant; assay type: cell-based, human; conditions: 18 hours
ZIKV/PRVABC59 = assay: Dose-response EC50, ZIKV/PRVABC59; assay type: cell-based; conditions: Zika virus, Vero 76, Vero76, MOI 0.05
VEEV TC-83 = assay type: cell-based, Venezuelan equine encephalitis virus
[7] = system: cellular metabolites of HEK 293T cells; assay: Metabolomics analysis of cellular metabolites; assay type: cell-based, human
YFV 17D = assay type: cell-based, Yellow Fever virus
SARS-CoV = assay type: cell-based, Severe acute respiratory syndrome coronavirus
WNV/NY99 [8] = assay type: cell-based, West Nile virus
RSV Long = assay type: cell-based, Respiratory syncytial virus
pVSV-luc = assay: microbe, parasite or virus in culture; assay type: cell-based, Vesicular stomatitis virus; conditions: for EC50: Vesicular stomatitis virus
Influenza virus A (H1N1) = assay type: cell-based
Ebola virus-GFP = assay: microbe, parasite or virus in culture; assay type: cell-based, Zaire ebolavirus
JEV [9] = assay type: cell-based, Japanese Encephalitis virus
WEEV = assay: cells; assay type: cell-based, West equine encephalitis virus California
in vitro = conditions: African green monkey, CC50 μM (Vero76)
[10] = ML416-treated / DMSO-treated, 18 hours
[11] = ML416 / DMSO, metabolite not confirmed by standard

With CN(C(=O)Cc1sccc1F)c1nc2c(s1)CCCC2 [ML416, 2-(3-fluorothiophen-2-yl)-N-methyl-N-(4,5,6,7-tetrahydro-1,3-benzothiazol-2-yl)acetamide] the EC50 (ZIKV/MR766) was 1100 nM, the “Log titer inhibition at 5 μM” value [1] was −4.768 Log and the “Log titer inhibition at 5 μM” value (LCMV-ARM) was −3.466 Log. The “Log reduction in progeny virus titers” value (LCMV-ARM; 5 μM) was “greater than 3 Log”, the EC50 (JEV [2]) was 1900 nM and the EC50 (JEV [2]; Vero 76, JEV, Vero76, MOI 0.05, Table 3, read-out: EC50) was 1900 nM. For the same compound, the “Log reduction in progeny virus titers” value (alphaviruses) was “greater than 4 Log”, the inhibition at 10 µM (HIV-1; Human immunodeficiency virus 1, TZM-bl, read-out: inhibition at 10 μM) was 94% and the “reduction in viral infectivity” value (HIV-1; TZM-bl reporter system, luciferase) was 94%. For the same compound, the IFIH1 expression [3] was “repressed”, the IFIT1 gene upregulation [3] was “more than 10 fold” and the IFNB1 expression [3] was “repressed”. For the same compound, the IRF7 gene upregulation [3] was “more than 10 fold”, the MYD88 expression [3] was “did not show any changes” and the OAS1 expression [3] was “did not show any changes”. The OAS2 gene upregulation [3] was “more than 10 fold”, the RIG-I gene upregulation [3] was “more than 10 fold” and the EC50 (VEEV TrD) was 460 nM. For the same compound, the EC50 (WNV/NY99 [4]; Table 2) was 2400 nM, the EC50 (WNV/NY99 [4]; Vero 76, Vero76, MOI 0.01, Table 3) was 2400 nM and the EC50 (CHIKV (S27 strain); Chikungunya virus) was 290 nM. For the same compound, the “inhibition of CHIKV-induced cytopathic effect” value (CHIKV (S27 strain); in words) was “in the nanomolar range”, the “Log titer inhibition at 5 μM” value (HSV-2) was 0.01 ± 0.43 Log and the “IFN α/β in cell culture supernatant” value ([5]; HEK 293T supernatant on HEK-Blue IFN-α/β cells) was “no measurable quantity of IFNs was detected”. The SEAP activity ([5]; HEK-Blue IFN-α/β cells treated directly, FIG. 6) was “did not induce SEAP activity”, the “IFN α/β in cell culture supernatant” value [6] was “no measurable quantity of IFNs was detected” and the EC50 (ZIKV/PRVABC59) was 2200 nM. For the same compound, the “Log titer inhibition at 5 μM” value (VEEV TC-83) was −2.536 ± 0.018 Log, the “Fold Change: 3-((carboxymethyl)(methyl)amino)-3-oxopropanoic acid” value [7, 10] was 0.46 fold and the “Fold Change: Citirc acid” value [7, 10] was 0.62 fold. For the same compound, the “Fold Change: D-(−)-Lactic acid” value [7, 10] was 0.76 fold, the “Fold Change: DL-Ornithine” value [7, 10] was 0.53 fold and the “Fold Change: DL-Phenylalanine” value [7, 10] was 0.71 fold. For the same compound, the “Fold Change: Fumaric Acid” value [7, 10] was 11 fold and 11.00 fold, the “Fold Change: Glycine” value [7, 10] was 2.80 fold and the “Fold Change: L-Asparagine” value [7, 10] was 0.41 fold. The “Fold Change: L-Aspartic acid” value [7, 10] was 2.07 fold, the “Fold Change: L-Glutamic acid” value [7, 10] was 0.09 fold and the “Fold Change: L-Isoleucine” value [7, 10] was 0.45 fold. For the same compound, the “Fold Change: L-Lysine” value [7, 10] was 2.76 fold, the “Fold Change: L-Proline” value [7, 10] was 0.28 fold and the “Fold Change: L-Threonine” value [7, 10] was 0.54 fold. For the same compound, the “Fold Change: L-Tyrosine” value [7, 10] was 0.86 fold, the “Fold Change: Lauric acid; Dodecanoic acid” value [7, 10] was 0.73 fold and the “Fold Change: Oxalic acid” value [7, 10] was 0.66 fold. The “Fold Change: Phenylalanine” value [7, 10] was 0.40 fold, the “Fold Change: Pyruvic acid” value [7, 10] was 1.60 fold and the “Fold Change: Tryptophan” value [7, 10] was 1.23 fold. For the same compound, the “presence of free uridine” value ([7]; ML416-treated groups) was “not detected”, the “Fold Change: 1-phenylpropan-2-amine; Amphetamine; Fenopromin*” value [7, 11] was 0.80 fold and the “Fold Change: 2-(Dimethylamino)ethyl neopentyl carbonate*” value [7, 11] was 1.49 fold. The “Fold Change: 3,3-diethoxy-2-hydroxypropyl dihydrogen phosphate*” value [7, 11] was 0.58 fold, the “Fold Change: 3-Glycerophosphate*” value [7, 11] was 1.71 fold and the “Fold Change: 3-hydroxy-2-methylpropanoic acid; 3-Hydroxyisobutyric acid*” value [7, 11] was 0.70 fold. The “Fold Change: Adenine*” value [7, 11] was 1.37 fold, the “Fold Change: Dihydromuconic acid; trans-3-Hexenedioic acid*” value [7, 11] was 0.23 fold and the “Fold Change: Ethylcholine mustard*” value [7, 11] was 0.49 fold. For the same compound, the “Fold Change: L-Norvaline*” value [7, 11] was 0.52 fold, the “Fold Change: Niacinamine*” value [7, 11] was 0.74 fold and the “Fold Change: O-phosphorylethanolamine; 2-aminoethyl dihydrogen phosphate*” value [7, 11] was 1.35 fold. The “Fold Change: Ribitol*” value [7, 11] was 0.66 fold, the “Fold Change: Scyllo-Inositol*” value [7, 11] was 1.23 fold and the “Fold Change: meso-Erythritol; Erythritol*” value [7, 11] was 0.69 fold. The “presence of dihydroorotic acid (DHO)” value ([7]; ML416 vs mock-treated) was “found only in ML416-treated groups”, the “presence of orotic acid” value ([7]; ML416 vs mock-treated) was “found only in ML416-treated groups” and the CC50 (Vero 76 cells) was over 50000 nM. For the same compound, the “Selective Index 50 (SI50)” value (Vero 76 cells) was 106.9, the “concentration up to which no apparent cytotoxicity” value (Vero 76 cells; African green monkey) was “up to 12.5 μM” and the cytotoxicity (Vero 76 cells; African green monkey) was over 40 µM. For the same compound, the “cytotoxicity in Vero 76 cells” value (Vero 76 cells; African green monkey) was over 50 µM, the “Log titer inhibition at 5 μM” value (YFV 17D) was −2.32 Log and the Log titer reduction (YFV 17D; 5 μM) was about 2 Log. The “antiviral activity (blank spaces of Table 2)” value (SARS-CoV) was “initial results have shown activity”, the “Log titer inhibition at 5 μM” value (WNV/NY99 [8]) was −2.05 ± −0.09 Log and the Log titer reduction (WNV/NY99 [8]; 5 μM) was about 2 Log. The “Log titer inhibition at 5 μM” value (RSV Long) was −2.27 ± 0.1 Log, the Log titer reduction (RSV Long; 5 μM) was about 2 Log and the antiviral effect (pVSV-luc) was “moderate effect”. The EC50 (pVSV-luc) was 190 nM, the EC50 (pVSV-luc; BHK, read-out: EC50 pVSV-Gp) was 8260 nM and the EC50 (pVSV-luc; HEK-293T, read-out: EC50 pVSV-Gp) was 170 nM. It also gave an EC50 (pVSV-luc; N2a, read-out: EC50 pVSV-Gp) of over 50000 nM, an EC50 (pVSV-luc; NIH3T3, read-out: EC50 pVSV-Gp) of over 50000 nM and an EC50 (pVSV-luc; in Mus musculus) of over 50000 nM. For the same compound, the EC50 (pVSV-luc; read-out: EC50 pVSV-Gp) was 3820 nM, the EC50 (pVSV-luc; read-out: EC50 values range) was 150 to 680 nM and the “Log titer inhibition at 5 μM” value (Influenza virus A (H1N1)) was −3.03 Log. The “Log reduction in progeny virus titers” value (Influenza virus A (H1N1); 5 μM) was “greater than 3 Log”, the EC50 (Ebola virus-GFP) was 260 nM and the EC50 (Ebola virus-GFP; Zaire ebolavirus, HeLa) was 300 nM. For the same compound, the “Log titer inhibition at 5 μM” value (JEV [9]) was −1.3 ± −0.43 Log, the Log reduction (JEV [9]; 5 μM) was about 1.3 Log and the EC50 (WEEV) was 960 nM. The CC50 (in vitro) was over 50 µM.
